Literature values in patent US20130191933A1, “METHODS OF TREATING PAIN AND MORPHINE TOLERANCE VIA MODULATION OF HEDGEHOG SIGNALLING PATHWAY” (BOARD OF REGENTS, THE UNIVERSITY OF TEXAS SYSTEM, priority 2010, published 2013).

Tests used:
[1] = system: Gli-mediated transcription; settings: cited from earlier work; for Gli-mediated transcription: in a variety of cell types (Cur-61414: cell and tissues types; Robotnikinin: also synthetic human tissue)
[2] = biological target: Smo (Homo sapiens, UniProt Q99835); settings: cited from earlier work
[3] = system: Glil,2-mediated transcription in HaCat cells; settings: cited from earlier work
[4] = system: Ptchl and BCL2 in HaCaT cells; settings: cited from earlier work

Smo, sequence (Q99835 28-787): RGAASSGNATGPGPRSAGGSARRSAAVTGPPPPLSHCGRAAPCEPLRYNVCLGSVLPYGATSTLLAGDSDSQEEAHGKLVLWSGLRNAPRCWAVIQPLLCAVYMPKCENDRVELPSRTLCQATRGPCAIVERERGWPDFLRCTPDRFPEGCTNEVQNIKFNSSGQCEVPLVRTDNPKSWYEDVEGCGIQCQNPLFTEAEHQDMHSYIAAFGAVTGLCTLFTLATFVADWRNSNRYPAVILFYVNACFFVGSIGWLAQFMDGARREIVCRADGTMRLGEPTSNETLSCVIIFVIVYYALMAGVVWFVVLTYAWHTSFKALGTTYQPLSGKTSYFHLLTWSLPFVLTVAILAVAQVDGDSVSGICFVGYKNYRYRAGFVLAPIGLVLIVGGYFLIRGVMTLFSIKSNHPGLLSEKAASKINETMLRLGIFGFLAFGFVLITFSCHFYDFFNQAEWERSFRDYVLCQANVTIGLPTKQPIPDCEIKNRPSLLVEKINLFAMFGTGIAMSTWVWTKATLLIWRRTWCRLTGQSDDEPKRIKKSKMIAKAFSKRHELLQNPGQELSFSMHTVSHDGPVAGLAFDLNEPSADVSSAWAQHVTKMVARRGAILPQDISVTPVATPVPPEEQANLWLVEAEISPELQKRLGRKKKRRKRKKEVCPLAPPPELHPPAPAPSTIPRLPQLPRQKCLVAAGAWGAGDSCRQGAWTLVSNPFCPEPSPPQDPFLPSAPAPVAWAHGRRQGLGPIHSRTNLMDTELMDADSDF

| SMILES | site of action in the pathway [1] | Gli-mediated transcription [1] | targeting / binding of Smo [2] | Glil,2-mediated transcription [3] | transcription of Ptchl and BCL2 [4] |
| --- | --- | --- | --- | --- | --- |
| CN(C)c1ccccc1CN1CCCN(Cc2ccccc2N(C)C)C1c1ccncc1 [GANT61] | Acts downstream of Smo and Sufu | Represses Gli-medicated transcription in a variety of cell types |  |  |  |
| c1cc(-c2sc(-c3ccncc3)c(-c3ccncc3)c2-c2ccncc2)ccn1 [GANT58] | Acts downstream of Smo and Sufu | Represses Gli-medicated transcription in a variety of cell types |  |  |  |
| CCc1ccc(-c2ccc(/C=C/C(=O)N3CCCCC3)cc2)nc1 [SANT4] |  | Represses Gli-medicated transcription in a variety of cell types | Targets Smo |  |  |
| Cc1nn(-c2ccccc2)c(C)c1/C=N/N1CCN(Cc2ccccc2)CC1 [SANT1] |  | Represses Gli-medicated transcription in a variety of cell types | Targets Smo |  |  |
| CC(C)CCC[C@](C)(O)[C@H]1CC[C@H]2[C@@H]3CC=C4C[C@@H](O)CC[C@]4(C)[C@H]3CC[C@@]21C [20α-Hydroxycholesterol] |  | Activates Gli-mediated transcription in a variety of cell types | Does not bind directly to Smo |  |  |
| C/C1=C\CC(C)(C)/C=C/C(=O)/C(C)=C/CC1 [Zerumbone] |  |  |  | Inhibits Glil,2-mediated transcription in HaCat cells | Inhibits transcription of Ptchl and BCL2 in HaCaT cells |
| CC(C)[C@@H](O)CC[C@@H](C)[C@H]1CC[C@H]2[C@@H]3CC=C4C[C@@H](O)CC[C@]4(C)[C@H]3CC[C@]12C [24(S)-Hydroxycholesterol] |  | Activates Gli-mediated transcription in a variety of cell types | Does not bind directly to Smo |  |  |
| C[C@@]12C[C@H]3OC(=O)[C@@H]1CO[C@]14O[C@]5([C@H]2C1=O)[C@@](O)(CC[C@H]1[C@H]4C[C@H]2O[C@]24CC=CC(=O)[C@]14C)C(=O)O[C@@]35C [Physalin F] |  |  |  | Inhibits Glil,2-mediated transcription in HaCat cells | Inhibits transcription of Ptchl and BCL2 in HaCaT cells |
| c1ccc2c(Oc3nc(Nc4ccc(N5CCOCC5)cc4)c4ncn(C5CCCCC5)c4n3)cccc2c1 [Purmorphamine] |  | Activates Gli-mediated transcription in a variety of cell types | Binds Smo and competes directly with cyclopamine-Smo |  |  |
| C[C@]12C(=O)C=CCC1=CC[C@@H]1[C@@H]2CC[C@]2(O)C(=O)O[C@@]3(C)[C@H]4C[C@]5(C)[C@@H](CO[C@@]16O[C@@]32[C@H]5C6=O)C(=O)O4 [Physalin B] |  |  |  | Inhibits Glil,2-mediated transcription in HaCat cells | Inhibits transcription of Ptchl and BCL2 in HaCaT cells |
| O=C1NCc2c1c1c3ccccc3[nH]c1c1[nH]c3ccccc3c21 [Staurosporinone] |  |  |  | Inhibits Glil,2-mediated transcription in HaCat cells | Inhibits transcription of Ptchl and BCL2 in HaCaT cells |
| C[C@H](CCCC(C)(C)O)[C@H]1CC[C@H]2[C@@H]3CC=C4C[C@@H](O)CC[C@]4(C)[C@H]3CC[C@]12C [25-Hydroxycholesterol] |  | Activates Gli-mediated transcription in a variety of cell types | Does not bind directly to Smo |  |  |
| CNC1CCC(N(Cc2cccc(-c3ccncc3)c2)C(=O)c2sc3ccccc3c2Cl)CC1 (stereo not drawn) [SAG] |  | Activates Gli-mediated transcription in a variety of cell types | Binds Smo and competes directly with cyclopamine-Smo |  |  |
| CCOc1cc(C(=O)Nc2ccc(Cl)c(-c3nc4ccccc4[nH]3)c2)cc(OCC)c1OCC [SANT2] |  | Represses Gli-medicated transcription in a variety of cell types | Targets Smo |  |  |
| CC(C)CC[C@H](O)[C@@H](C)[C@H]1CC[C@H]2[C@@H]3CC=C4C[C@@H](O)CC[C@]4(C)[C@H]3CC[C@]12C [22(S)-Hydroxycholesterol] |  | Activates Gli-mediated transcription in a variety of cell types | Does not bind directly to Smo |  |  |
| CS(=O)(=O)c1ccc(C(=O)Nc2ccc(Cl)c(-c3ccccn3)c2)c(Cl)c1 [GDC-0449] |  | Represses Gli-medicated transcription in a variety of cell types | Targets Smo |  |  |
| COc1cccc(CN(C(=O)CC(C)(C)C)[C@H]2C[C@@H](C(=O)N3CCNCC3)N(Cc3ccc4c(c3)OCO4)C2)c1 [Cur-61414] |  |  | Targets Smo |  |  |
| CC1=C2C[C@H]3[C@@H](CC[C@@H]4C[C@H](NS(C)(=O)=O)CC[C@@]43C)[C@@H]2CC[C@@]2(C1)O[C@@H]1C[C@H](C)CN[C@H]1[C@H]2C [IPI-926] |  | Represses Gli-medicated transcription in a variety of cell types | Targets Smo |  |  |
| CC1=C2C[C@H]3[C@@H](CC=C4CC(=O)CC[C@@]43C)[C@@H]2CC[C@]12O[C@@H]1C[C@H](C)CN(CCNC(=O)CCCCCNC(=O)CCc3ccccc3)[C@H]1[C@H]2C [KAAD-cyclopamine] |  |  | target Smo |  |  |
